Test results as given in patent US8192962B2, “Processes for detecting toxic substances” (Daikin Industries, Ltd., priority 2001, dated 2012).

Tested on: Metabolism protein genes
Assay: DNA chip mRNA expression in yeast, metabolism protein genes (Table 7)
Format: cell-based, Saccharomyces cerevisiae S288C
Procedure: Yeast (Saccharomyces cerevisiae S288C (α SUC2mal mel gap2 CUP1)) were incubated at 25° C. on YPD medium (yeast extract 1%, polypepton 2%, glucose 2%). One of toxic chemical substances was added to the cells at logarithmic growth phase, and the cells were further incubated for two hours. Cells were cultured without any chemical substance in the same condition, and were used as control. Concentrations of the chemical substances were defined to inhibit the growth of the yeast but not lead to death.
After completion of the incubation, the culture was centrifuged to collect the cells. To the cells, sodium acetate buffer (50 mM sodium acetate, 10 mM EDTA, 1% SDS) was added, and the mixture was shaken at 65° C. for five minutes, followed by returning to room temperature, and obtaining the supernatant, of which the procedures were repeated two times. To the supernatant, ½ amount of a solution of phenol/chloroform was added, and the mixture was centrifuged to give a supernatant, which was added with an equal amount of chloroform, and the mixture was centrifuged to give a supernatant. To the supernatant, an equal amount of isopropanol containing 0.3 M sodium acetate was added, and the mixture was allowed to stand at room temperature for 30 minutes, after which the mixture was centrifuged to give a sediment of the whole RNAs. Seventy % ethanol was added to the sediment, and the mixture was again centrifuged to give a sediment, which was then dried and dissolved in water. mRNA was isolated from the whole RNAs as followings. In view of the fact that a poly A chain is attached to the 3′ terminus of mRNA, a polynucleotide having a poly T structure which was immobilized on the surface of latex beads was used to trap the mRNA, and then the mRNA was washed and eluted with spine column (Oligotex-dT30<Super>mRNA Purification Kit, Takara). Reverse transcription of the mRNA was conducted with a reverse transcriptase (Super Script II Reverse Transcriptase; catalogue No. 18064-014, GibcoBRL) using fluorescence-labeled nucleotides to give cDNAs that were introduced with Cy3-dUTP or Cy5-dUTP during the reverse transcription.
The labeled cDNAs were dissolved in TE buffer (10mM Tris-HCl/1 mM EDTA, pH8.0), and the solution was dropped on the DNA chip containing the whole genes of yeast (DNA Chip Research Inc. Japan) so that the cDNAs were hybridized on the DNA chip at 65° C. for over 12 hours. The fluoresces intensity of the DNA chip was read with a scanner, and the ratio relative to the fluorescence intensity resulting from the absence of chemical substance was estimated as the following, which is shown in Tables 1 to 9: […]

Structure (SMILES): [Cl][Cd][Cl] [(2), CdCl2]
- The level of expressed mRNA in the presence of chemical substance/The level of expressed mRNA in the absence of chemical substance (yeast gene YAL012W): 6.5
- The level of expressed mRNA in the presence of chemical substance/The level of expressed mRNA in the absence of chemical substance (yeast gene YAL038W): 1.0
- level of expressed mRNA in the presence/in the absence of chemical substance (yeast gene YBR003W): 0.8
- level of expressed mRNA in the presence/in the absence of chemical substance (yeast gene YBR011C): 1.8
- level of expressed mRNA in the presence/in the absence of chemical substance (yeast gene YBR020W): 0.5
- The level of expressed mRNA in the presence of chemical substance/The level of expressed mRNA in the absence of chemical substance (yeast gene YBR023C): 0.8
- The level of expressed mRNA in the presence of chemical substance/The level of expressed mRNA in the absence of chemical substance (yeast gene YBR029C): 0.2
- The level of expressed mRNA in the presence of chemical substance/The level of expressed mRNA in the absence of chemical substance (yeast gene YBR183W): 1.5
- The level of expressed mRNA in the presence of chemical substance/The level of expressed mRNA in the absence of chemical substance (yeast gene YBR222C): 1.2
- The level of expressed mRNA in the presence of chemical substance/The level of expressed mRNA in the absence of chemical substance (yeast gene YBR256C): 1.4
- The level of expressed mRNA in the presence of chemical substance/The level of expressed mRNA in the absence of chemical substance (yeast gene YCL009C): 0.9
- The level of expressed mRNA in the presence of chemical substance/The level of expressed mRNA in the absence of chemical substance (yeast gene YCL064C): 0.6
- level of expressed mRNA in the presence/in the absence of chemical substance (yeast gene YCR010C): 1.6
- level of expressed mRNA in the presence/in the absence of chemical substance (yeast gene YCR034W): 0.4
- The level of expressed mRNA in the presence of chemical substance/The level of expressed mRNA in the absence of chemical substance (yeast gene YCR048W): 1.1
- The level of expressed mRNA in the presence of chemical substance/The level of expressed mRNA in the absence of chemical substance (yeast gene YCR098C): 3.0
- The level of expressed mRNA in the presence of chemical substance/The level of expressed mRNA in the absence of chemical substance (yeast gene YDR019C): 0.5
- level of expressed mRNA in the presence/in the absence of chemical substance (yeast gene YDR050C): 1.3
- level of expressed mRNA in the presence/in the absence of chemical substance (yeast gene YDR073W): 0.9
- level of expressed mRNA in the presence/in the absence of chemical substance (yeast gene YDR123C): 0.8
- level of expressed mRNA in the presence/in the absence of chemical substance (yeast gene YDR178W): 2.0
- level of expressed mRNA in the presence/in the absence of chemical substance (yeast gene YDR277C): 1.2
- level of expressed mRNA in the presence/in the absence of chemical substance (yeast gene YDR284C): 1.5
- level of expressed mRNA in the presence/in the absence of chemical substance (yeast gene YDR345C): 0.9
- The level of expressed mRNA in the presence of chemical substance/The level of expressed mRNA in the absence of chemical substance (yeast gene YDR380W): 0.8
- level of expressed mRNA in the presence/in the absence of chemical substance (yeast gene YDR400W): 2.0
- level of expressed mRNA in the presence/in the absence of chemical substance (yeast gene YDR408C): 1.0
- level of expressed mRNA in the presence/in the absence of chemical substance (yeast gene YDR483W): 1.0
- The level of expressed mRNA in the presence of chemical substance/The level of expressed mRNA in the absence of chemical substance (yeast gene YDR497C): 0.5
- The level of expressed mRNA in the presence of chemical substance/The level of expressed mRNA in the absence of chemical substance (yeast gene YDR502C): 2.8
- The level of expressed mRNA in the presence of chemical substance/The level of expressed mRNA in the absence of chemical substance (yeast gene YDR516C): 1.5
- level of expressed mRNA in the presence/in the absence of chemical substance (yeast gene YEL063C): 0.8
- level of expressed mRNA in the presence/in the absence of chemical substance (yeast gene YER015W): 0.9
- The level of expressed mRNA in the presence of chemical substance/The level of expressed mRNA in the absence of chemical substance (yeast gene YER026C): 0.6
- The level of expressed mRNA in the presence of chemical substance/The level of expressed mRNA in the absence of chemical substance (yeast gene YER053C): 1.8
- The level of expressed mRNA in the presence of chemical substance/The level of expressed mRNA in the absence of chemical substance (yeast gene YER069W): 0.8
- level of expressed mRNA in the presence/in the absence of chemical substance (yeast gene YER081W): 1.9
- The level of expressed mRNA in the presence of chemical substance/The level of expressed mRNA in the absence of chemical substance (yeast gene YER096W): 2.3
- level of expressed mRNA in the presence/in the absence of chemical substance (yeast gene YER120W): 1.1
- The level of expressed mRNA in the presence of chemical substance/The level of expressed mRNA in the absence of chemical substance (yeast gene YER178W): 0.9
- level of expressed mRNA in the presence/in the absence of chemical substance (yeast gene YFL011W): 0.7
- The level of expressed mRNA in the presence of chemical substance/The level of expressed mRNA in the absence of chemical substance (yeast gene YFL014W): 7.2
- The level of expressed mRNA in the presence of chemical substance/The level of expressed mRNA in the absence of chemical substance (yeast gene YFL030W): 6.0
- The level of expressed mRNA in the presence of chemical substance/The level of expressed mRNA in the absence of chemical substance (yeast gene YFL031W): 1.3
- The level of expressed mRNA in the presence of chemical substance/The level of expressed mRNA in the absence of chemical substance (yeast gene YFL056C): 2.3
- The level of expressed mRNA in the presence of chemical substance/The level of expressed mRNA in the absence of chemical substance (yeast gene YFL057C): 5.8
- The level of expressed mRNA in the presence of chemical substance/The level of expressed mRNA in the absence of chemical substance (yeast gene YFR047C): 4.0
- level of expressed mRNA in the presence/in the absence of chemical substance (yeast gene YGL012W): 0.8
- The level of expressed mRNA in the presence of chemical substance/The level of expressed mRNA in the absence of chemical substance (yeast gene YGL022W): 0.8
- level of expressed mRNA in the presence/in the absence of chemical substance (yeast gene YGL115W): 0.6
- The level of expressed mRNA in the presence of chemical substance/The level of expressed mRNA in the absence of chemical substance (yeast gene YGL126W): 1.3
- level of expressed mRNA in the presence/in the absence of chemical substance (yeast gene YGL205W): 0.9
- The level of expressed mRNA in the presence of chemical substance/The level of expressed mRNA in the absence of chemical substance (yeast gene YGL209W): 1.6
- The level of expressed mRNA in the presence of chemical substance/The level of expressed mRNA in the absence of chemical substance (yeast gene YGL248W): 1.3
- The level of expressed mRNA in the presence of chemical substance/The level of expressed mRNA in the absence of chemical substance (yeast gene YGR037C): 1.2
- The level of expressed mRNA in the presence of chemical substance/The level of expressed mRNA in the absence of chemical substance (yeast gene YGR055W): 5.7
- level of expressed mRNA in the presence/in the absence of chemical substance (yeast gene YGR096W): 1.0
- level of expressed mRNA in the presence/in the absence of chemical substance (yeast gene YGR191W): 0.7
- The level of expressed mRNA in the presence of chemical substance/The level of expressed mRNA in the absence of chemical substance (yeast gene YGR194C): 1.0
- level of expressed mRNA in the presence/in the absence of chemical substance (yeast gene YGR204W): 1.1
- The level of expressed mRNA in the presence of chemical substance/The level of expressed mRNA in the absence of chemical substance (yeast gene YGR256W): 1.5
- The level of expressed mRNA in the presence of chemical substance/The level of expressed mRNA in the absence of chemical substance (yeast gene YGR282C): 0.7
- level of expressed mRNA in the presence/in the absence of chemical substance (yeast gene YGR288W): 0.5
- level of expressed mRNA in the presence/in the absence of chemical substance (yeast gene YHR025W): 0.8
- The level of expressed mRNA in the presence of chemical substance/The level of expressed mRNA in the absence of chemical substance (yeast gene YHR111W): 1.3
- level of expressed mRNA in the presence/in the absence of chemical substance (yeast gene YHR123W): 1.2
- The level of expressed mRNA in the presence of chemical substance/The level of expressed mRNA in the absence of chemical substance (yeast gene YHR137W): 1.0
- The level of expressed mRNA in the presence of chemical substance/The level of expressed mRNA in the absence of chemical substance (yeast gene YHR174W): 1.4
- The level of expressed mRNA in the presence of chemical substance/The level of expressed mRNA in the absence of chemical substance (yeast gene YHR176W): 2.0
- level of expressed mRNA in the presence/in the absence of chemical substance (yeast gene YHR210C): 1.0
- level of expressed mRNA in the presence/in the absence of chemical substance (yeast gene YIL006W): 1.1
- The level of expressed mRNA in the presence of chemical substance/The level of expressed mRNA in the absence of chemical substance (yeast gene YIL045W): 1.4
- The level of expressed mRNA in the presence of chemical substance/The level of expressed mRNA in the absence of chemical substance (yeast gene YIL107C): 0.8
- The level of expressed mRNA in the presence of chemical substance/The level of expressed mRNA in the absence of chemical substance (yeast gene YIL154C): 1.3
- The level of expressed mRNA in the presence of chemical substance/The level of expressed mRNA in the absence of chemical substance (yeast gene YIL155C): 0.7
- The level of expressed mRNA in the presence of chemical substance/The level of expressed mRNA in the absence of chemical substance (yeast gene YIR034C): 1.1
- The level of expressed mRNA in the presence of chemical substance/The level of expressed mRNA in the absence of chemical substance (yeast gene YIR036C): 1.7
- The level of expressed mRNA in the presence of chemical substance/The level of expressed mRNA in the absence of chemical substance (yeast gene YJL031C): 1.2
- The level of expressed mRNA in the presence of chemical substance/The level of expressed mRNA in the absence of chemical substance (yeast gene YJL068C): 2.7
- The level of expressed mRNA in the presence of chemical substance/The level of expressed mRNA in the absence of chemical substance (yeast gene YJL088W): 0.8
- The level of expressed mRNA in the presence of chemical substance/The level of expressed mRNA in the absence of chemical substance (yeast gene YJL099W): 1.2
- level of expressed mRNA in the presence/in the absence of chemical substance (yeast gene YJL121C): 0.5
- level of expressed mRNA in the presence/in the absence of chemical substance (yeast gene YJL167W): 1.4
- The level of expressed mRNA in the presence of chemical substance/The level of expressed mRNA in the absence of chemical substance (yeast gene YJL172W): 2.1
- level of expressed mRNA in the presence/in the absence of chemical substance (yeast gene YJL216C): 4.7
- The level of expressed mRNA in the presence of chemical substance/The level of expressed mRNA in the absence of chemical substance (yeast gene YJL219W): 2.5
- level of expressed mRNA in the presence/in the absence of chemical substance (yeast gene YJR077C): 1.1
- The level of expressed mRNA in the presence of chemical substance/The level of expressed mRNA in the absence of chemical substance (yeast gene YJR137C): 2.9
- level of expressed mRNA in the presence/in the absence of chemical substance (yeast gene YJR143C): 0.6
- The level of expressed mRNA in the presence of chemical substance/The level of expressed mRNA in the absence of chemical substance (yeast gene YJR148W): 1.4
